Laboratory results: patent US20240158446A1, “CYCLIC COMPOUND HAVING SELECTIVE INHIBITORY ACTION ON KRAS OVER HRAS AND NRAS” (CHUGAI SEIYAKU KABUSHIKI KAISHA, priority 2021, published 2024)

Key:
[1] = target: GDP-bound HRAS wild-type protein (Homo sapiens, UniProt P01112); experiment: Binding to HRAS by surface plasmon resonance (SPR), Single Cycle Kinetics; settings: SPR KD ratio HRAS/KRAS, class symbols
[2] = target: GDP-bound NRAS wild-type protein (Homo sapiens, UniProt P01111); experiment: Binding to NRAS by surface plasmon resonance (SPR), Single Cycle Kinetics; settings: SPR KD ratio NRAS/KRAS, class symbols
GDP-bound NRAS wild-type protein, sequence (P01111 whole entry): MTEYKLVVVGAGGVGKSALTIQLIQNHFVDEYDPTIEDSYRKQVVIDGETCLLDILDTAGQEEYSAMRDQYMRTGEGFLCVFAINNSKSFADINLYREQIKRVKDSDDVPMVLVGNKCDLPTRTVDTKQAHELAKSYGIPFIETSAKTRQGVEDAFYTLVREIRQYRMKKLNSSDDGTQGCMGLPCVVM

GDP-bound HRAS wild-type protein, sequence (P01112 whole entry): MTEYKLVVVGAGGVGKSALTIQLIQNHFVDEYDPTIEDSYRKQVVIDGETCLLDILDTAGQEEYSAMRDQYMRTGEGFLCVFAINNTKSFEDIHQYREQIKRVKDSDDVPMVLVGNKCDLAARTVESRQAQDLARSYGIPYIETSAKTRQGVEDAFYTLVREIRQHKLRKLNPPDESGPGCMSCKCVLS

CCO[C@@H]1C[C@H]2C(=O)NC3(CC(C)(C)C3)C(=O)N(C)[C@@H](C3CCCC3)C(=O)N(C)[C@H](C(=O)N(C)C)CC(=O)N(C)[C@@H](CC(C)C)C(=O)N[C@@H]([C@@H](C)CC)C(=O)N(C)CC(=O)N(C)[C@H]3C/C=C\CCN(C3=O)[C@@H](Cc3ccc(C(C)C)cc3)C(=O)N(C)CC(=O)N[C@@H](CCc3ccc(C(F)(F)F)c(OC)c3)C(=O)N2C1 [PP2692]
HRAS/KRAS (ratio of KD value with respect to GDP-bound HRAS wild-type protein to KD value with respect to KRAS) [1]: A (a compound having 10 or more and less than 20 is denoted as A) | NRAS/KRAS (ratio of KD value with respect to GDP-bound NRAS wild-type protein to KD value with respect to KRAS) [2]: A (a compound having 10 or more and less than 20 is denoted as A)

CCO[C@@H]1C[C@H]2C(=O)NC3(CC(C)(C)C3)C(=O)N(C)[C@@H](C3CCCC3)C(=O)N(C)[C@H](C(=O)N(C)C)CC(=O)N(C)[C@@H](CC(C)C)C(=O)N[C@@H]([C@@H](C)CC)C(=O)N(C)CC(=O)N(C)[C@H]3C/C=C\CCN(C3=O)[C@@H](Cc3ccc(OC)cc3)C(=O)N(C)CC(=O)N[C@@H](CCc3ccc(C(F)(F)F)c(OC)c3)C(=O)N2C1 [PP2693]
HRAS/KRAS (ratio of KD value with respect to GDP-bound HRAS wild-type protein to KD value with respect to KRAS) [1]: B (a compound having 3 or more and less than 10 is denoted as B) | NRAS/KRAS (ratio of KD value with respect to GDP-bound NRAS wild-type protein to KD value with respect to KRAS) [2]: A (a compound having 10 or more and less than 20 is denoted as A)

CCO[C@@H]1C[C@H]2C(=O)NC3(CC(C)(C)C3)C(=O)N(C)[C@@H](C3CCCC3)C(=O)N(C)[C@H](C(=O)N(C)C)CC(=O)N(C)[C@@H](CC(C)C)C(=O)N[C@@H]([C@@H](C)CC)C(=O)N(C)CC(=O)N(C)[C@H]3C/C=C\CCN(C3=O)[C@@H](Cc3ccc(C(C)=O)cc3)C(=O)N(C)CC(=O)N[C@@H](CCc3ccc(C(F)(F)F)c(OC)c3)C(=O)N2C1 [PP2694]
HRAS/KRAS (ratio of KD value with respect to GDP-bound HRAS wild-type protein to KD value with respect to KRAS) [1]: B (a compound having 3 or more and less than 10 is denoted as B) | NRAS/KRAS (ratio of KD value with respect to GDP-bound NRAS wild-type protein to KD value with respect to KRAS) [2]: A (a compound having 10 or more and less than 20 is denoted as A)

CCO[C@@H]1C[C@H]2C(=O)NC3(CC(C)(C)C3)C(=O)N(C)[C@@H](C3CCCC3)C(=O)N(C)[C@H](C(=O)N(C)C)CC(=O)N(C)[C@@H](CC(C)C)C(=O)N[C@@H]([C@@H](C)CC)C(=O)N(C)CC(=O)N(C)[C@H]3C/C=C\CCN(C3=O)[C@@H](Cc3ccc4c(c3)CCC4(F)F)C(=O)N(C)CC(=O)N[C@@H](CCc3ccc(C(F)(F)F)c(OC)c3)C(=O)N2C1 [PP2695]
HRAS/KRAS (ratio of KD value with respect to GDP-bound HRAS wild-type protein to KD value with respect to KRAS) [1]: B (a compound having 3 or more and less than 10 is denoted as B) | NRAS/KRAS (ratio of KD value with respect to GDP-bound NRAS wild-type protein to KD value with respect to KRAS) [2]: A (a compound having 10 or more and less than 20 is denoted as A)

CCOC[C@H]1C(=O)N[C@@H]([C@@H](C)CC)C(=O)N(C)CC(=O)N(C)[C@H]2C/C=C\CCN(C2=O)[C@@H](Cc2ccc(C)cc2F)C(=O)N(C)CC(=O)N[C@@H](CCc2ccc(C(F)(F)F)c(OC)c2)C(=O)N2C[C@@H](C)C[C@H]2C(=O)NC2(CC(C)(C)C2)C(=O)N(C)[C@@H](C2CCCC2)C(=O)N(C)[C@H](C(=O)N(C)CC)CC(=O)N1C [PP2697]
HRAS/KRAS (ratio of KD value with respect to GDP-bound HRAS wild-type protein to KD value with respect to KRAS) [1]: A (a compound having 10 or more and less than 20 is denoted as A) | NRAS/KRAS (ratio of KD value with respect to GDP-bound NRAS wild-type protein to KD value with respect to KRAS) [2]: A (a compound having 10 or more and less than 20 is denoted as A)

CCOC[C@H]1C(=O)N[C@@H]([C@@H](C)CC)C(=O)N(C)CC(=O)N(C)[C@H]2C/C=C\CCN(C2=O)[C@@H](Cc2ccc(C)c(F)c2)C(=O)N(C)CC(=O)N[C@@H](CCc2ccc(C(F)(F)F)c(OC)c2)C(=O)N2C[C@@H](C)C[C@H]2C(=O)NC2(CC(C)(C)C2)C(=O)N(C)[C@@H](C2CCCC2)C(=O)N(C)[C@H](C(=O)N(C)CC)CC(=O)N1C [PP2698]
HRAS/KRAS (ratio of KD value with respect to GDP-bound HRAS wild-type protein to KD value with respect to KRAS) [1]: A (a compound having 10 or more and less than 20 is denoted as A) | NRAS/KRAS (ratio of KD value with respect to GDP-bound NRAS wild-type protein to KD value with respect to KRAS) [2]: A (a compound having 10 or more and less than 20 is denoted as A)

CCOC[C@H]1C(=O)N[C@@H]([C@@H](C)CC)C(=O)N(C)CC(=O)N(C)[C@H]2C/C=C\CCN(C2=O)[C@@H](Cc2ccc(C(C)(F)F)cc2)C(=O)N(C)CC(=O)N[C@@H](CCc2ccc(C(F)(F)F)c(OC)c2)C(=O)N2C[C@@H](C)C[C@H]2C(=O)NC2(CC(C)(C)C2)C(=O)N(C)[C@@H](C2CCCC2)C(=O)N(C)[C@H](C(=O)N(C)CC)CC(=O)N1C [PP2699]
HRAS/KRAS (ratio of KD value with respect to GDP-bound HRAS wild-type protein to KD value with respect to KRAS) [1]: B (a compound having 3 or more and less than 10 is denoted as B) | NRAS/KRAS (ratio of KD value with respect to GDP-bound NRAS wild-type protein to KD value with respect to KRAS) [2]: A (a compound having 10 or more and less than 20 is denoted as A)

CCOC[C@H]1C(=O)N[C@@H]([C@@H](C)CC)C(=O)N(C)CC(=O)N(C)[C@H]2C/C=C\CCN(C2=O)[C@@H](Cc2ccc(C3CC3)cc2)C(=O)N(C)CC(=O)N[C@@H](CCc2ccc(C(F)(F)F)c(OC)c2)C(=O)N2C[C@@H](C)C[C@H]2C(=O)NC2(CC(C)(C)C2)C(=O)N(C)[C@@H](C2CCCC2)C(=O)N(C)[C@H](C(=O)N(C)CC)CC(=O)N1C [PP2700]
HRAS/KRAS (ratio of KD value with respect to GDP-bound HRAS wild-type protein to KD value with respect to KRAS) [1]: B (a compound having 3 or more and less than 10 is denoted as B) | NRAS/KRAS (ratio of KD value with respect to GDP-bound NRAS wild-type protein to KD value with respect to KRAS) [2]: A (a compound having 10 or more and less than 20 is denoted as A)

CCOC[C@H]1C(=O)N[C@@H]([C@@H](C)CC)C(=O)N(C)CC(=O)N(C)[C@H]2C/C=C\CCN(C2=O)[C@@H](Cc2ccc(C(C)C)cc2)C(=O)N(C)CC(=O)N[C@@H](CCc2ccc(C(F)(F)F)c(OC)c2)C(=O)N2C[C@@H](C)C[C@H]2C(=O)NC2(CC(C)(C)C2)C(=O)N(C)[C@@H](C2CCCC2)C(=O)N(C)[C@H](C(=O)N(C)CC)CC(=O)N1C [PP2701]
HRAS/KRAS (ratio of KD value with respect to GDP-bound HRAS wild-type protein to KD value with respect to KRAS) [1]: A (a compound having 10 or more and less than 20 is denoted as A) | NRAS/KRAS (ratio of KD value with respect to GDP-bound NRAS wild-type protein to KD value with respect to KRAS) [2]: A (a compound having 10 or more and less than 20 is denoted as A)

CCOC[C@H]1C(=O)N[C@@H]([C@@H](C)CC)C(=O)N(C)CC(=O)N(C)[C@H]2C/C=C\CCN(C2=O)[C@@H](Cc2ccc(OC)cc2)C(=O)N(C)CC(=O)N[C@@H](CCc2ccc(C(F)(F)F)c(OC)c2)C(=O)N2C[C@@H](C)C[C@H]2C(=O)NC2(CC(C)(C)C2)C(=O)N(C)[C@@H](C2CCCC2)C(=O)N(C)[C@H](C(=O)N(C)CC)CC(=O)N1C [PP2702]
HRAS/KRAS (ratio of KD value with respect to GDP-bound HRAS wild-type protein to KD value with respect to KRAS) [1]: B (a compound having 3 or more and less than 10 is denoted as B) | NRAS/KRAS (ratio of KD value with respect to GDP-bound NRAS wild-type protein to KD value with respect to KRAS) [2]: A (a compound having 10 or more and less than 20 is denoted as A)

CCOC[C@H]1C(=O)N[C@@H]([C@@H](C)CC)C(=O)N(C)CC(=O)N(C)[C@H]2C/C=C\CCN(C2=O)[C@@H](Cc2ccc(C(C)=O)cc2)C(=O)N(C)CC(=O)N[C@@H](CCc2ccc(C(F)(F)F)c(OC)c2)C(=O)N2C[C@@H](C)C[C@H]2C(=O)NC2(CC(C)(C)C2)C(=O)N(C)[C@@H](C2CCCC2)C(=O)N(C)[C@H](C(=O)N(C)CC)CC(=O)N1C [PP2703]
HRAS/KRAS (ratio of KD value with respect to GDP-bound HRAS wild-type protein to KD value with respect to KRAS) [1]: A (a compound having 10 or more and less than 20 is denoted as A) | NRAS/KRAS (ratio of KD value with respect to GDP-bound NRAS wild-type protein to KD value with respect to KRAS) [2]: AA (a compound having 20 or more is denoted as AA)

CCOC[C@H]1C(=O)N[C@@H]([C@@H](C)CC)C(=O)N(C)CC(=O)N(C)[C@H]2C/C=C\CCN(C2=O)[C@@H](Cc2ccc3c(c2)CCC3(F)F)C(=O)N(C)CC(=O)N[C@@H](CCc2ccc(C(F)(F)F)c(OC)c2)C(=O)N2C[C@@H](C)C[C@H]2C(=O)NC2(CC(C)(C)C2)C(=O)N(C)[C@@H](C2CCCC2)C(=O)N(C)[C@H](C(=O)N(C)CC)CC(=O)N1C [PP2704]
HRAS/KRAS (ratio of KD value with respect to GDP-bound HRAS wild-type protein to KD value with respect to KRAS) [1]: B (a compound having 3 or more and less than 10 is denoted as B) | NRAS/KRAS (ratio of KD value with respect to GDP-bound NRAS wild-type protein to KD value with respect to KRAS) [2]: B (a compound having 3 or more and less than 10 is denoted as B)

CCC[C@H]1C(=O)N[C@@H]([C@@H](C)CC)C(=O)N(C2CC2)CC(=O)N(C)[C@H]2C/C=C\CCN(C2=O)[C@@H](Cc2ccc(C(F)(F)F)cc2)C(=O)N(C)CC(=O)N[C@@H](CCc2cc(F)c(C(F)(F)F)c(F)c2)C(=O)N2C[C@H](OCC)C[C@H]2C(=O)NC2(CC(C)(C)C2)C(=O)N(C)[C@@H](CC(C)(C)C)C(=O)N(C)[C@H](C(=O)N(C)C)CC(=O)N1C [PP2742]
HRAS/KRAS (ratio of KD value with respect to GDP-bound HRAS wild-type protein to KD value with respect to KRAS) [1]: A (a compound having 10 or more and less than 20 is denoted as A) | NRAS/KRAS (ratio of KD value with respect to GDP-bound NRAS wild-type protein to KD value with respect to KRAS) [2]: AA (a compound having 20 or more is denoted as AA)

CCO[C@@H]1C[C@H]2C(=O)NC3(CC(C)(C)C3)C(=O)N(C)[C@@H](CC(C)(C)C)C(=O)N(C)[C@H](C(=O)N(C)C)CC(=O)N(C)[C@@H](COC)C(=O)N[C@@H]([C@@H](C)CC)C(=O)N(C3CC3)CC(=O)N(C)[C@H]3C/C=C\CCN(C3=O)[C@@H](Cc3ccc(C(F)(F)F)cc3)C(=O)N(C)CC(=O)N[C@@H](CCc3ccc(Cl)c(Cl)c3)C(=O)N2C1 [PP2750]
HRAS/KRAS (ratio of KD value with respect to GDP-bound HRAS wild-type protein to KD value with respect to KRAS) [1]: A (a compound having 10 or more and less than 20 is denoted as A) | NRAS/KRAS (ratio of KD value with respect to GDP-bound NRAS wild-type protein to KD value with respect to KRAS) [2]: AA (a compound having 20 or more is denoted as AA)

CCC[C@H]1C(=O)N[C@@H]([C@@H](C)CC)C(=O)N(C)CC(=O)N(C)[C@H]2C/C=C\CCN(C2=O)[C@@H](Cc2ccc(C)cc2)C(=O)N(C)CC(=O)N[C@@H](CCc2ccc(CC)c(Cl)c2)C(=O)N2C[C@H](OCC)C[C@H]2C(=O)NC2(CC(C)(C)C2)C(=O)N(C)[C@@H](C(CC)CC)C(=O)N(C)[C@H](C(=O)N(C)C)CC(=O)N1C [PP2779]
HRAS/KRAS (ratio of KD value with respect to GDP-bound HRAS wild-type protein to KD value with respect to KRAS) [1]: A (a compound having 10 or more and less than 20 is denoted as A) | NRAS/KRAS (ratio of KD value with respect to GDP-bound NRAS wild-type protein to KD value with respect to KRAS) [2]: A (a compound having 10 or more and less than 20 is denoted as A)
